Tests used:
[1] = NMR and CD titration of ramoplanin with compound 2; type: binding; conditions: NMR
From the text: The ability of ramoplanin to interact with 2 is investigated by NMR (FIG. 10). Unexpectedly, titration of ramoplanin with compound 2 caused the ramoplanin signals to disappear. Resonances for free 2 began to appear at a 1:1 ramoplanin:2 ratio. The disappearance of the ramoplanin resonances connotes a change in relaxation properties consistent with the formation of a high molecular weight species. A striking increase in the viscosity of the ramoplanin samples is evident upon the addition of compound 2. In addition, electron micrographs of the ramoplanin complexes show long fibrils (not shown). Thus, ramoplanin undergoes a ligand-induced polymerization process in the presence of 2. Ligand-induced polymerization of ramoplanin complexes implies a conformational change in ramoplanin. Therefore, one would expect a significant change in the far UV CD spectrum of ramoplanin upon adding 2. In fact, the CD spectrum for ramoplanin changes dramatically upon titration with 2 (FIG. 11). The appearance of a minimum at ˜210 nm is consistent with a model in which assembly into fibrils is mediated by hydrogen bonds between amides in the ramoplanin complexes, and is all likelihood related to the unusual pattern of D and L amino acids in the molecule. […]

transglycosylases = test: modified membrane assay of radiolabeled Lipid II polymerization; type: biochemical; conditions: increasing concentrations of ramoplanin; FIG. 9
From the text: Ramoplanin (FIG. 8) is a cyclic glycolipodepsipeptide antibiotic that kills gram positive bacteria by inhibiting cell wall biosynthesis. Ramoplanin blocks the conversion of Lipid I to Lipid II, a reaction that is catalyzed by the intracellular GlcNAc transferase. MurG. It is proposed that ramoplanin inhibits MurG by complexing Lipid I, which prevents it from being utilized as a substrate. Unexpectedly ramoplanin is shown by this inventor to inhibit the polymerization of Lipid II; therefore another mechanism is discovered by which ramoplanin can kill bacterial cells through inhibition of the transglycosylation step of peptidoglycan synthesis. Using a synthetic analogue of Lipid II, the evidence is presented that enzyme inhibition by ramoplanin involves substrate binding. Unexpectedly, the ramoplanin complexes are found to self-associate to form observable fibrils. The mechanism of action of ramoplanin has been investigated in the past in permeabilized bacterial cells and membrane preparations by following the incorporation of radiolabel from a precursor into various intermediates along the pathway to peptidoglycan. […] The effect of ramoplanin on Lipid II polymerization is evaluated by monitoring the amount of radioactive peptidoglycan formed in the presence of increasing concentrations of ramoplanin. […]

[2] = tested on: transglycosylase present in bacterial membranes; test: in vitro polymerization of biotinylated-[14C]-Lipid II by bacterial membrane protein, ascending chromatography; type: biochemical; conditions: 0.06 μg/ml Moenomycin, FIG. 7
Description: FIG. 7 discloses in vitro polymerization of biotinylated-[^14C]-Lipid II accomplished by incubation with bacterial membrane protein, and product is detected by ascending chromatography in isobutyric acid:1M NH4OH (5:3).
In FIG. 7, biotinylated Lipid II serves as a substrate for transglycosylase present in bacterial membranes. Control: incubation of bacterial membranes with biotinylated Lipid II, which is also labeled with [^14C] […] It is thus clear that any other bacterial cell wall inhibitor can be equally screened.

Q: For Ramoplanin, which “binding to Lipid II analogue” value [1] is on record?
A: Its value is “binds to a synthetic analogue of Lipid II”.

Q: What about the “effect on Lipid II polymerization (radioactive peptidoglycan formed)” value (transglycosylases) of the same substance?
A: The value was “blocks the polymerization of Lipid II”.

Q: Which “formation of peptidoglycan from biotinylated [14C]-Lipid II” value [2] does the source give for moenomycin here?
A: Its value is “inhibits formation of peptidoglycan”.
